Here are results for 52 molecules from patent publication US9675592B2, “Methods and compositions for bacteria infections” (priority 2013, dated 2017).

Each structure is given as a SMILES string. Read-outs that look alike come from different tables or passages of the source.

The subject of experiment [1] is test strain 923 pPvra-lux (USA300 MRSA). The experiment is described as follows: Primary screen, relative growth in presence of oxacillin. As to conditions: compound 10 μM with oxacillin 2 μg/mL, absorbance 24 h, <0.50 = dead cells = hit.
For experiment [2], the system named is vraSR promoter (Pvra-lux reporter in strain 923). The experiment is described as follows: Primary screen, relative luminescence (vraSR expression).
[3] abbreviates: primary screen, compound 10 μM with oxacillin 2 μg/mL, <0.50 = vraSR repressed = hit.

Consider `CCN(CC)S(=O)(=O)c1ccc(C(=O)Nc2nnc(-c3cc(C)ccc3C)o2)cc1` [F2518-298], for which, in experiment [1], the “RG avg (relative growth)” value is recorded as −0.02. The “RL avg (relative luminescence)” value in experiment [2] (setting [3]) is 0.06.
The like results for `COc1cccc2cc(-c3nnc(NC(=O)c4ccc5ncsc5c4)o3)oc12` [F2273-114] were, in that order, 0.26 and 0.26.
For `O=C(Nc1nnc(-c2ccc(Cl)s2)o1)c1ccc(Cl)cc1` [F1374-1055], in experiment [1], the “RG avg (relative growth)” value amounted to 0.02. The “RL avg (relative luminescence)” value in experiment [2] (setting [3]) is 0.50.
The corresponding values for `O=C(Nc1nnc(-c2ccc(Br)s2)o1)c1ccc2ncsc2c1` [F5093-111] are −0.02 and −0.02.
With `Cc1ccc(-c2nnc(NC(=O)c3ccc(S(=O)(=O)N4CCCCC4C)cc3)o2)c(C)c1` (centres unmarked) [F2518-228], the “RG avg (relative growth)” value in experiment [1] is listed as 0.00. Besides, the “RL avg (relative luminescence)” value in experiment [2] (setting [3]) is on record as −0.14.
Turning to `COc1cc(OC)cc(C(=O)Nc2nnc(-c3ccc(Br)cc3)o2)c1` [F2518-451], the “RG avg (relative growth)” value in experiment [1] is −0.01. Further, the “RL avg (relative luminescence)” value in experiment [2] (setting [3]) was −0.10.
As for `COc1cccc(-c2nnc(NC(=O)c3cccc(Oc4ccccc4)c3)o2)c1` [F1374-396], the “RG avg (relative growth)” value in experiment [1] amounted to 0.04. Further, the “RL avg (relative luminescence)” value in experiment [2] (setting [3]) came to 0.34.
With `COc1cccc(-c2nnc(NC(=O)c3ccc(S(=O)(=O)N(C)C4CCCCC4)cc3)o2)c1` [F0559-158], in experiment [1], the “RG avg (relative growth)” value was found to be 0.03. For the same molecule, the “RL avg (relative luminescence)” value in experiment [2] (setting [3]) was −0.07.
Consider `O=C(Nc1nnc(-c2ccccc2Cl)o1)c1sc2ccccc2c1Cl` [F1374-43], for which the “RG avg (relative growth)” value in experiment [1] was 0.04. The “RL avg (relative luminescence)” value in experiment [2] (setting [3]) was found to be 0.35.
As to `CSc1ccccc1-c1nnc(NC(=O)c2cc(Cl)sc2Cl)o1` [F2645-67], the “RG avg (relative growth)” value in experiment [1] is recorded as 0.02. Moreover, the “RL avg (relative luminescence)” value in experiment [2] (setting [3]) is given as 0.37.
The like results for `O=C(Nc1nnc(-c2ccc(F)cc2)o1)c1ccc(Br)s1` [F1374-140] were, in that order, 0.02 and 0.35.
As for `O=C(Nc1nnc(-c2ccc(Br)s2)o1)c1cc(Cl)ccc1Cl` [F5093-46], in experiment [1], the “RG avg (relative growth)” value was −0.01. Further, in experiment [2] (setting [3]), the “RL avg (relative luminescence)” value is on record as −0.07.
The like results for `O=C(Nc1nnc(-c2ccc(Br)cc2)o1)c1cccc(C(F)(F)F)c1` [F2518-477] were, in that order, 0.01 and 0.03.
The like results for `COc1ccccc1-c1nnc(NC(=O)c2sc3ccccc3c2Cl)o1` [F1374-253] were, in that order, 0.04 and 0.32.
The corresponding values for `O=C(Nc1nnc(-c2ccc(Br)cc2)o1)c1ccc2c(c1)CCCC2` [F2518-517] are 0.01 and −0.08.
Turning to `O=C(Nc1nnc(-c2ccc(Br)cc2)o1)c1ccc(Oc2ccccc2)cc1` [F2518-534], the “RG avg (relative growth)” value in experiment [1] worked out at 0.01. Also, the “RL avg (relative luminescence)” value in experiment [2] (setting [3]) is 0.04.
The like results for `C=CCN(CC=C)S(=O)(=O)c1ccc(C(=O)Nc2nnc(-c3ccc(OC)cc3)o2)cc1` [F0559-189] were, in that order, −0.05 and −0.08.
The like results for `CC1CN(S(=O)(=O)c2ccc(C(=O)Nc3nnc(-c4ccc(F)cc4)o3)cc2)CC(C)O1` (centres unmarked) [F0559-107] were, in that order, −0.05 and −0.06.
`O=C(Nc1nnc(-c2ccc3c(c2)OCCO3)o1)c1ccc(C(=O)c2ccccc2)cc1` [F0608-19]: the “RG avg (relative growth)” value in experiment [1] is on record as −0.02. Besides, in experiment [2] (setting [3]), the “RL avg (relative luminescence)” value is −0.12.
The corresponding values for `Cc1ccc(C)c(-c2nnc(NC(=O)c3ccc(S(=O)(=O)N4CC(C)OC(C)C4)cc3)o2)c1` (centres unmarked) [F2518-334] are 0.00 and −0.04.
The corresponding values for `COc1ccc(Cc2nnc(NC(=O)c3ccc(S(=O)(=O)N(C)Cc4ccccc4)cc3)o2)cc1` [F2368-617] are −0.04 and −0.07.
The corresponding values for `O=C(Nc1nnc(-c2cccnc2)o1)c1cc(Cl)cc(Cl)c1` [F0608-1062] are −0.04 and −0.10.
On to `O=C(Nc1nnc(-c2ccc(Cl)cc2)o1)c1cccs1` [F1374-757], for which the “RG avg (relative growth)” value in experiment [1] is reported as 0.02. The “RL avg (relative luminescence)” value in experiment [2] (setting [3]) is 0.29.
The corresponding values for `CC1CCCCN1S(=O)(=O)c1ccc(C(=O)Nc2nnc(-c3ccc4c(c3)OCCO4)o2)cc1` (centres unmarked) [F0608-71] are −0.03 and 0.01.
For the molecule `O=C(Nc1nnc(C2=COCCO2)o1)c1cc(Cl)cc(Cl)c1` [F0608-258], in experiment [1], the “RG avg (relative growth)” value is reported as −0.05. In experiment [2] (setting [3]), the “RL avg (relative luminescence)” value is listed as −0.06.
The like results for `O=C(Nc1nc(-c2ccccn2)cs1)c1cc(Cl)ccc1Cl` [F0447-277] were, in that order, −0.06 and −0.11.
The like results for `COc1cccc(-c2nnc(NC(=O)c3ccc(S(=O)(=O)N4CCc5ccccc5C4)cc3)o2)c1` [F0559-171] were, in that order, −0.06 and −0.11.
The corresponding values for `O=C(Nc1nnc(Cc2ccccc2)o1)c1cc(Cl)sc1Cl` [F2368-63] are −0.01 and −0.02.
Turning to `O=C(Nc1nnc(-c2ccc3c(c2)CCCC3)o1)c1cccc(C(F)(F)F)c1` [F0608-575], the “RG avg (relative growth)” value in experiment [1] was −0.02. The “RL avg (relative luminescence)” value in experiment [2] (setting [3]) is on record as −0.09.
The like results for `COc1cc(-c2nnc(NC(=O)c3cccc(Cl)c3)o2)cc(OC)c1OC` [F2517-7] were, in that order, −0.03 and −0.11.
The like results for `Cc1ccc(-c2nnc(NC(=O)c3cccc(C(F)(F)F)c3)o2)c(C)c1` [F2518-189] were, in that order, 0.01 and −0.02.
The corresponding values for `CCN(CC)S(=O)(=O)c1ccc(C(=O)Nc2nnc(-c3ccc4c(c3)CCCC4)o2)cc1` [F0608-543] are −0.02 and −0.08.
With `O=C(Nc1nnc(-c2cc(Cl)ccc2Cl)o1)c1ccc(C(=O)c2ccccc2)cc1` [F2518-24], in experiment [1], the “RG avg (relative growth)” value is listed as −0.01. Also, the “RL avg (relative luminescence)” value in experiment [2] (setting [3]) came out at 0.06.
The corresponding values for `O=C(Nc1nnc(-c2ccc(Br)s2)o1)c1ccc(Cl)s1` [F5093-40] are 0.03 and −0.02.
In the case of `O=C(Nc1nnc(-c2cc(Cl)sc2Cl)o1)c1ccc(F)cc1F` [F1374-2707], the “RG avg (relative growth)” value in experiment [1] is given as 0.00. Further, the “RL avg (relative luminescence)” value in experiment [2] (setting [3]) is on record as 0.32.
The corresponding values for `CCOc1ccc(-c2nnc(NC(=O)c3c(-c4ccccc4Cl)noc3C)o2)cc1` [F2517-329] are −0.02 and −0.11.
For `O=C(Nc1nnc(-c2ccc(Cl)s2)o1)c1cccc(F)c1` [F1374-1062], in experiment [1], the “RG avg (relative growth)” value is reported as 0.01. In experiment [2] (setting [3]), the “RL avg (relative luminescence)” value worked out at 0.46.
The like results for `C=CCN(CC=C)S(=O)(=O)c1ccc(C(=O)Nc2nnc(-c3cc(OC)c(OC)c(OC)c3)o2)cc1` [F0559-279] were, in that order, 0.40 and −0.09.
The corresponding values for `Cc1ccc(-c2nnc(NC(=O)c3ccc(F)cc3)o2)cc1C` [F2767-12] are 0.02 and 0.01.
The like results for `Cc1ccccc1C(=O)Nc1nnc(-c2ccc3c(c2)CCCC3)o1` [F0608-614] were, in that order, 0.08 and −0.05.
Turning to `O=C(Nc1nnc(-c2ccco2)o1)c1cc(-c2ccccc2)nc2ccccc12` [F0608-448], the “RG avg (relative growth)” value in experiment [1] was determined as 0.19. For the same molecule, the “RL avg (relative luminescence)” value in experiment [2] (setting [3]) is −0.04.
`Cc1ccc(C)c(-c2nnc(NC(=O)c3ccc4ncsc4c3)o2)c1` [F2518-414]: in experiment [1], the “RG avg (relative growth)” value was 0.01. Further, the “RL avg (relative luminescence)” value in experiment [2] (setting [3]) is −0.02.
`O=C(Nc1nnc(-c2cc3ccccc3o2)o1)c1ccc(F)cc1` [F2273-390]: the “RG avg (relative growth)” value in experiment [1] came to 0.27. Also, the “RL avg (relative luminescence)” value in experiment [2] (setting [3]) stood at 0.20.
The corresponding values for `O=C(Nc1nnc(-c2cc(Cl)sc2Cl)o1)c1ccc2ncsc2c1` [F1374-2676] are 0.01 and 0.34.
The like results for `COc1ccc(-c2nnc(NC(=O)c3cc(Cl)sc3Cl)o2)c(OC)c1` [F1374-583] were, in that order, 0.00 and 0.36.
In the case of `O=C(Nc1nnc(-c2ccc(Cl)s2)o1)c1ccc2ncsc2c1` [F1374-1151], the “RG avg (relative growth)” value in experiment [1] is given as −0.02. For the same molecule, the “RL avg (relative luminescence)” value in experiment [2] (setting [3]) amounted to 0.35.
With `CCOc1ccc(C(=O)Nc2nnc(-c3ccc(Cl)s3)o2)cc1` [F1374-1129], in experiment [1], the “RG avg (relative growth)” value came out at 0.00. For the same molecule, in experiment [2], the “RL avg (relative luminescence)” value is on record as 0.47.
Take `O=C(Nc1nnc(-c2ccc3c(c2)CCCC3)o1)c1cccc(Cl)c1` [F0608-659]: the “RG avg (relative growth)” value in experiment [1] was −0.05. Further, the “RL avg (relative luminescence)” value in experiment [2] (setting [3]) was −0.08.
Consider `COc1cc(OC)cc(-c2nnc(NC(=O)c3ccc(Cl)cc3Cl)o2)c1` [F1374-651], for which, in experiment [1], the “RG avg (relative growth)” value stood at 0.04. Moreover, the “RL avg (relative luminescence)” value in experiment [2] (setting [3]) was determined as 0.38.
The corresponding values for `C=CCN(CC=C)S(=O)(=O)c1ccc(C(=O)Nc2nnc(-c3ccccc3OC)o2)cc1` [F0559-129] are −0.08 and −0.07.
The like results for `CCN(c1ccccc1)S(=O)(=O)c1ccc(C(=O)Nc2nnc(-c3ccccc3SC)o2)cc1` [F2645-115] were, in that order, 0.13 and 0.45.
The like results for `O=C(Nc1nnc(-c2ccccc2)o1)c1ccc(Br)s1` [F1374-875] were, in that order, 0.04 and 0.30.
